# Measured values taken from US20130225583A1, “SUBSTITUTED AMINO-TRIAZOLYL PDE10 INHIBITORS” (priority 2010, published 2013).
# Biological target: T1, human PDE10A2 (Homo sapiens, UniProt Q9Y233)
# T1 construct: made in house; host or cells: AD293 cells, transiently transfected; The cytosolic supernatant of the lysate served as the enzyme
# Experiment: PDE10 fluorescence polarization (IMAP FP) inhibition assay
# Assay type: biochemical
# Details: apparent inhibition constant; FAM-labeled cAMP 50 nM; lysate of AD293 cells transfected with human PDE10A2; room temperature; read-out: PDE10a Ki
# Description: The activity of the compounds in accordance with the present invention as PDE10 inhibitors may be readily determined without undue experimentation using a fluorescence polarization (FP) methodology that is well known in the art (Huang, W., et al., J. Biomol Screen, 2002, 7: 215).
# In a typical experiment the PDE 10 inhibitory activity of the compounds of the present invention was determined in accordance with the following experimental method. PDE 10A2 was amplified from human fetal brain cDNA (Clontech, Mountain View, Calif.) using a forward primer corresponding to nucleotides 56-77 of human PDE10A2 (Accession No. AF127480, Genbank Identifier 4894716), containing a Kozak consensus sequence, and a reverse primer corresponding to nucleotides 2406-2413 of human PDE10A2 (Accession No. AF127480, Genbank Identifier 4894716). Amplification with Easy-A polymerase (Stratagene, La Jolla, Calif.) was 95° C. for 2 minutes followed by thirty three cycles of 95° C. for 40 seconds, 55° C. for 30 seconds, and 72° C. for 2 minutes 48 seconds. Final extension was 72° C. for 7 minutes. The PCR product was TA cloned into pcDNA3.2-TOPO (Invitrogen, Carlsbad, Calif.) according to standard protocol. AD293 cells with 70-80% confluency were transiently transfected with human PDE10A2/pcDNA3.2-TOPO using Lipofectamine 2000 according to manufacturer specifications (Invitrogen, Carlsbad, Calif.). Cells were harvested 48 hours post-transfection and lysed by sonication (setting 3, 10×5 sec pulses) in a buffer containing 20 mM HEPES, 1 mM EDTA and protease inhibitor cocktail (Roche). Lysate was collected by centrifugation at 75,000×g for 20 minutes. Supernatant containing the cytoplasmic fraction was used for evaluation of PDE10A2 activity. The fluorescence polarization assay for cyclic nucleotide phosphodiesterases was performed using an IMAP® FP kit supplied by Molecular Devices, Sunnyvale, Calif. (product # R8139). IMAP® technology has been applied previously to phosphodiesterase assays (Huang, W., et al., J. Biomol Screen, 2002, 7: 215). Assays were performed at room temperature in 384-well microtiter plates with an incubation volume of 20.2 μL. Solutions of test compounds were prepared in DMSO and serially diluted with DMSO to yield 8 μL of each of 10 solutions differing by 3-fold in concentration, at 32 serial dilutions per plate. 100% inhibition is determined using a known PDE 10 inhibitor, which can be any compound that is present at 5,000 times its Ki value in the assay described as follows, such as papaverine (see Siuciak, et al. Neuropharmacology (2006) 51:386-396; Becker, et al. Behav Brain Res (2008) 186(2):155-60; Threlfell, et al., J Pharmacol Exp Ther (2009) 328(3):785-795), 2-{4-[pyridin-4-yl-1-(2,2,2-trifluoroethyl)-1H-pyrazol-3-yl]phenoxymethyl}quinoline succinic acid or 2-[4-(1-methyl-4-pyridin-4-yl-1H-pyrazol-3-yl)-phenoxymethyl]quinoline succinic acid (see Schmidt, et al. J Pharmacol Exp Ther (2008) 325:681-690; Threlfell, et al., J Pharmacol Exp Ther (2009) 328(3): 785-795). 0% of inhibition is determined by using DMSO (1% final concentrations). A Labcyte Echo 555 (Labcyte, Sunnyvale, Calif.) is used to dispense 200 nL from each well of the titration plate to the 384 well assay plate. A solution of enzyme ( 1/7000 dilution from aliquots; sufficient to produce 20% substrate conversion) and a separate solution of FAM-labeled cAMP PDE from Molecular Devices (product # R7506), at a final concentration of 50 nM are made in the assay buffer (10 mM Tris HCl, pH 7.2, 10 mM MgCl2, 0.05% NaN3 0.01% Tween-20, and 1 mM DTT). The enzyme is added to the assay plates by the addition of 10 μL of enzyme solution to each well, shaken to mix and incubated at room temperature for 60 minutes. The substrate is then added to the assay plates by the addition of 10 μL of substrate solution to each well, shaken to mix, and incubated at room temperature for 60 minutes. […]
# T1 sequence (Q9Y233 267-1055): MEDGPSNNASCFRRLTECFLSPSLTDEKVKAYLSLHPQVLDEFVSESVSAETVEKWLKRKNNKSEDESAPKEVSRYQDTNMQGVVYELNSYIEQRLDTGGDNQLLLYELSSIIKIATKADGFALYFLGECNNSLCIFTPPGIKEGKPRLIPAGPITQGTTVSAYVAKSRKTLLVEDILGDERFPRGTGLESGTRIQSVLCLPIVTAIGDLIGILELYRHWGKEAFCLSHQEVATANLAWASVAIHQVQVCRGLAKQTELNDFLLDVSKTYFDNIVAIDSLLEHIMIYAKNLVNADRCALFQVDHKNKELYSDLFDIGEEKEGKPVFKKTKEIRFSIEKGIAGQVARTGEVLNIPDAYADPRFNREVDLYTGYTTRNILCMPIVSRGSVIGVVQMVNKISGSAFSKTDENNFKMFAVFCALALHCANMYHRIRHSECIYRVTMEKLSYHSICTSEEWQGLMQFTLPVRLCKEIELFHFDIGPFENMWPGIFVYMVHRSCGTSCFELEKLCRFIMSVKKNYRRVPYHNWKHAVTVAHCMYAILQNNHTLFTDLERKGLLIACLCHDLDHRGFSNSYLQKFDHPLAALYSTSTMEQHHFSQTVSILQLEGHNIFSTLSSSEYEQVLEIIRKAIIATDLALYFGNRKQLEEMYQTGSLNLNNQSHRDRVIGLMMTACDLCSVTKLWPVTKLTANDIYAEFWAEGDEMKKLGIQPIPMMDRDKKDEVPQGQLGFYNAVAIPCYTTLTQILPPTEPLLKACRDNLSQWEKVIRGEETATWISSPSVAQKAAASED
row,Ki,Compound
1,0.0086 µM,"COc1ccc(Cc2nc(N)nn2-c2cc(OCC3CCC3)ncn2)cc1OC [1-62, 1-(6-(cyclobutylmethoxy)pyrimidin-4-yl)-5-(3,4-dimethoxybenzyl)-1H-1,2,4-triazol-3-amine]"
2,0.37 µM,"COc1ccc(Cc2nc(N)nn2-c2cc(OC(C)C)ncn2)cc1OC [1-60, 5-(3,4-dimethoxybenzyl)-1-(6-isopropoxypyrimidin-4-yl)-1H-1,2,4-triazol-3-amine]"
3,0.65 µM,"COc1ccc(Cc2nc(N)nn2-c2cc(=O)n(Cc3cn4ccccc4n3)cn2)cc1OC [1-55, 6-(3-amino-5-(3,4-dimethoxybenzyl)-1H-1,2,4-triazol-1-yl)-3-(imidazo[1,2-a]pyridin-2-ylmethyl)pyrimidin-4(3H)-one]"
4,0.019 µM,"COc1ccc(Cc2nc(N)nn2-c2cc(OCc3nc4ccccc4[nH]3)ncn2)cc1OC [1-40, 1-(6-((1H-benzo[d]imidazol-2-yl)methoxy)pyrimidin-4-yl)-5-(3,4-dimethoxybenzyl)-1H-1,2,4-triazol-3-amine]"
5,0.76 µM,"COc1ccc(Cc2nc(N)nn2-c2cc(OCc3ccc4ccccc4n3)ncn2)cc1OC [1-68, 5-(3,4-dimethoxybenzyl)-1-(6-(quinolin-2-ylmethoxy)pyrimidin-4-yl)-1H-1,2,4-triazol-3-amine]"
6,0.19 µM,"COc1ccc(Cc2nc(N)nn2-c2cc(=O)n(Cc3ccccc3C(F)(F)F)cn2)cc1OC [1-50, 6-(3-amino-5-(3,4-dimethoxybenzyl)-1H-1,2,4-triazol-1-yl)-3-(2-(trifluoromethyl)benzyl)pyrimidin-4(3H)-one]"
7,0.064 µM,"COc1ccc(Cc2nc(N)nn2-c2cc(=O)n(Cc3ccc4ccccc4n3)cn2)cc1OC [1-75, 6-(3-amino-5-(3,4-dimethoxybenzyl)-1H-1,2,4-triazol-1-yl)-3-(quinolin-2-ylmethyl)pyrimidin-4(3H)-one]"
8,0.64 µM,"COc1ccc(Cc2nc(N)nn2-c2cc(=O)n(CC3CCC3)cn2)cc1OC [1-70, 6-(3-amino-5-(3,4-dimethoxybenzyl)-1H-1,2,4-triazol-1-yl)-3-(cyclobutylmethyl)pyrimidin-4(3H)-one]"
9,0.27 µM,"COc1ccc(Cc2nc(N)nn2-c2cc(OCc3ccc(-c4ccncc4)cc3)ncn2)cc1OC [1-42, 5-(3,4-dimethoxybenzyl)-1-(6-(4-(pyridin-4-yl)benzyloxy)pyrimidin-4-yl)-1H-1,2,4-triazol-3-amine]"
10,0.97 µM,"COc1ccc(Cc2nc(N)nn2-c2cc(OC3Cc4ccccc4C3)ncn2)cc1OC [1-39, 1-(6-(2,3-dihydro-1H-inden-2-yloxy)pyrimidin-4-yl)-5-(3,4-dimethoxybenzyl)-1H-1,2,4-triazol-3-amine]"
11,0.11 µM,"COc1ccc(Cc2nc(N)nn2-c2cc(=O)n(CCN3CCNC3=O)cn2)cc1OC [1-57, 6-(3-amino-5-(3,4-dimethoxybenzyl)-1H-1,2,4-triazol-1-yl)-3-(2-(2-oxoimidazolidin-1-yl)ethyl)pyrimidin-4(3H)-one]"
12,0.22 µM,"COc1ccc(Cc2nc(N)nn2-c2cc(=O)n(CC3(c4ccccc4)CC3(F)F)cn2)cc1OC (stereo not drawn) [1-59, 6-(3-amino-5-(3,4-dimethoxybenzyl)-1H-1,2,4-triazol-1-yl)-3-((2,2-difluoro-1-phenylcyclopropyl)methyl)pyrimidin-4(3H)-one]"
13,0.019 µM,"COc1ccc(Cc2nc(N)nn2-c2cc(OCc3ccccc3-c3cccs3)ncn2)cc1OC [1-43, 5-(3,4-dimethoxybenzyl)-1-(6-(2-(thiophen-2-yl)benzyloxy)pyrimidin-4-yl)-1H-1,2,4-triazol-3-amine]"
14,0.018 µM,"COc1ccc(Cc2nc(N)nn2-c2cc(OCCN3CCNC3=O)ncn2)cc1OC [1-44, 1-(2-(6-(3-amino-5-(3,4-dimethoxybenzyl)-1H-1,2,4-triazol-1-yl)pyrimidin-4-yloxy)ethyl)imidazolidin-2-one]"
15,0.39 µM,"COc1ccc(Cc2nc(N)nn2-c2cc(=O)n(Cc3nc4ccccc4[nH]3)cn2)cc1OC [1-54, 3-((1H-benzo[d]imidazol-2-yl)methyl)-6-(3-amino-5-(3,4-dimethoxybenzyl)-1H-1,2,4-triazol-1-yl)pyrimidin-4(3H)-one]"
16,0.18 µM,"COc1ccc(Cc2nc(N)nn2-c2cc(OCc3cn4ccccc4n3)ncn2)cc1OC [1-41, 5-(3,4-dimethoxybenzyl)-1-(6-(imidazo[1,2-a]pyridin-2-ylmethoxy)pyrimidin-4-yl)-1H-1,2,4-triazol-3-amine]"
17,0.013 µM,"COc1ccc(Cc2nc(N)nn2-c2cc(OCC(C)(C)C)ncn2)cc1OC [1-64, 5-(3,4-dimethoxybenzyl)-1-(6-(neopentyloxy)pyrimidin-4-yl)-1H-1,2,4-triazol-3-amine]"
18,0.54 µM,"COc1ccc(Cc2nc(N)nn2-c2cc(=O)n(Cc3ccc(-c4ccncc4)cc3)cn2)cc1OC [1-56, 6-(3-amino-5-(3,4-dimethoxybenzyl)-1H-1,2,4-triazol-1-yl)-3-(4-(pyridin-4-yl)benzyl)pyrimidin-4(3H)-one]"
19,0.054 µM,"COc1ccc(Cc2nc(N)nn2-c2cc(OCc3ccc4ccccc4c3)ncn2)cc1OC [1-38, 5-(3,4-dimethoxybenzyl)-1-(6-(naphthalen-2-ylmethoxy)pyrimidin-4-yl)-1H-1,2,4-triazol-3-amine]"
20,0.62 µM,"CCCn1cnc(-n2nc(N)nc2Cc2ccc(OC)c(OC)c2)cc1=O [1-71, 6-(3-amino-5-(3,4-dimethoxybenzyl)-1H-1,2,4-triazol-1-yl)-3-propylpyrimidin-4(3H)-one]"
21,0.101 µM,"COc1ccc(Cc2nc(N)nn2-c2cc(C)cc(C)c2)cc1OC [1-17, 5-(3,4-dimethoxybenzyl)-1-(3,5-dimethylphenyl)-1H-1,2,4-triazol-3-amine]"
22,0.037 µM,"COc1ccc(Cc2nc(N)nn2-c2cc(=O)n(Cc3cnc(N4CCNCC4)cn3)cn2)cc1OC [1-58, 6-(3-amino-5-(3,4-dimethoxybenzyl)-1H-1,2,4-triazol-1-yl)-3-((5-(piperazin-1-yl)pyrazin-2-yl)methyl)pyrimidin-4(3H)-one]"
23,0.019 µM,"COc1ccc(CNc2nc(Cc3ccc(OC)c(OC)c3)n(-c3cc(C#Cc4ccccn4)nc(C)n3)n2)cc1 [1-84, 5-(3,4-dimethoxybenzyl)-N-(4-methoxybenzyl)-1-(2-methyl-6-(pyridin-2-ylethynyl)pyrimidin-4-yl)-1H-1,2,4-triazol-3-amine]"
24,0.13 µM,"COc1ccc(Cc2nc(N)nn2-c2cc(Oc3cccnc3)nc(C)n2)cc1OC [1-79, 5-(3,4-dimethoxybenzyl)-1-(2-methyl-6-(pyridin-3-yloxy)pyrimidin-4-yl)-1H-1,2,4-triazol-3-amine]"
25,0.57 µM,"COc1ccc(Cc2nc(N)nn2-c2cc(OCc3cncc(N4CCNCC4)n3)ncn2)cc1OC [1-45, 5-(3,4-dimethoxybenzyl)-1-(6-((6-(piperazin-1-yl)pyrazin-2-yl)methoxy)pyrimidin-4-yl)-1H-1,2,4-triazol-3-amine]"
26,0.019 µM,"COc1ccc(Cc2nc(N)nn2-c2cc(OC3CCCCC3)ncn2)cc1OC [1-61, 1-(6-(cyclohexyloxy)pyrimidin-4-yl)-5-(3,4-dimethoxybenzyl)-1H-1,2,4-triazol-3-amine]"
27,1 µM,"COc1ccc(CNc2nc(Cc3ccc(OC)c(OC)c3)n(-c3cc(Oc4cccnc4)nc(C)n3)n2)cc1 [1-77, 5-(3,4-dimethoxybenzyl)-N-(4-methoxybenzyl)-1-(2-methyl-6-(pyridin-3-yloxy)pyrimidin-4-yl)-1H-1,2,4-triazol-3-amine]"
